The record followed here is US5811445A, “Method of preventing abnormal stimulation of AT1 and AT2 receptors” (Roussel Uclaf, priority 1994, dated 1998).

Like-named read-outs stand apart in the source and are kept apart here.

Test [1] concerns angiotensin II (pressure effects). Kind of test: Test for antagonistic activity of angiotensin II in the demedullated rat. In kind it is in vivo, Male Sprague-Dawley rats. The settings on record: IV, inhibition of pressure effects of angiotensin II (0.75 micrograms/kg), read-out: ID50 IV. The procedure: 3 - Test for antagonistic activity of angiotensin II in the demedullated rat
Male Sprague-Dawley rats (250 to 350 g) are anaesthetized by an intraperitoneal injection with sodium pentobarbital (60 mg/kg). The diastolic arterial pressure is recorded by means of a heparin catheter (PE50) introduced into the left carotid of the animal, and connected to a pressure processor (Gould, Pressure Processor) via a Gould pressure sensor.
A catheter is introduced into the right jugular vein of the animal in order to allow injection of the molecules being studied.
The animal is placed under assisted respiration. A bilateral section of the vagus nerves is carried out. The rat is then demedullated.
After a sufficient stabilization period, study of the antagonism of the molecules vis-a-vis angiotensin II (Hypertensin, CIBA) is carried out in the following manner:
1 - Three consecutive injections of angiotensin II (0.75 micrograms/kg) 15 minutes apart allow a reproducible and stable pressure response to be obtained.
2 - While maintaining a periodicity of 15 minutes for the administration of angiotensin II, the molecules (0.01 to 10 mg/kg) are injected 5 minutes before the angiotensin II.
The pressure effects of angiotensin II in the presence of the antagonist are expressed as a percentage of the pressure effects of angiotensin II administered alone. The 50% inhibitory dose (ID50) of the effect studied is thus determined.
Each animal is considered as its own control.

For test [2], the target named is T1, AT2 receptor of angiotensin II (Oryctolagus cuniculus, UniProt G1T351).
T1 construct: A fresh membrane preparation obtained from rabbit's uterus is used; from tissue; host or cells: uterus membranes of estradiol-treated rabbits
T1 sequence (G1T351 1-363): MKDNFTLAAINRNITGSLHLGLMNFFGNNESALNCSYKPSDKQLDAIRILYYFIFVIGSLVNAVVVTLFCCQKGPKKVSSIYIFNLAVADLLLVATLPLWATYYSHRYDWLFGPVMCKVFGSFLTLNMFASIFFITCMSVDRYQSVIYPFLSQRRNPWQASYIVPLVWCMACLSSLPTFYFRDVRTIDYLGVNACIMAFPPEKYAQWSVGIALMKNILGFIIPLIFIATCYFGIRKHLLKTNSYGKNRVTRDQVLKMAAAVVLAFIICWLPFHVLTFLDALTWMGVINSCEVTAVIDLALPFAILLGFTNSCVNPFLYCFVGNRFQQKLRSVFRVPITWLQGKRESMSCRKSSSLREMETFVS
Kind of test: Test on the AT2 receptor of angiotensin II (displacement of 125I angiotensin II, rabbit uterus membranes). In kind it is binding. As for the experimental part:
2) Test on the AT2 receptor of angiotensin II
The tissue is ground up in a polytron in a 50 mM Tris buffer pH 7.4, and the grinding is followed by 3 centrifugations at 30,000 g for 15 minutes, with intermediate take up of the pellets in the Tris buffer pH 7.4.
The homogenate obtained is preincubated for 20 minutes at 25° C. in the presence of 10 mM dithiothreitol, then brought back to 0°-4° C.
The product is first tested at 3.10^-5 M three times. When the tested product displaces more than 50% of the radioactivity specifically bound to the receptor, it is tested again according to a range of 7 concentrations in order to determine the concentration which inhibits by 50% the radioactivity specifically bound to the receptor. In this way the 50% inhibitory concentration is determined.
(§1) After incubation at 25° C. for 150 minutes, placing in a water-bath at 0° C. for 5 minutes, filtration under vacuum, and rinsing with Tris buffer pH 7.4, the radioactivity is counted in the presence of a scintillating solid.
(Loss of bound radioactivity is the signal in a displacement assay; it reports binding, not function.)

In test [3] the target is T2, AT1 receptor of angiotensin II (Rattus norvegicus, UniProt P25095).
T2 construct: A fresh membrane preparation obtained from rat's liver is used; from tissue; host or cells: rat liver membranes
T2 sequence (P25095 1-359): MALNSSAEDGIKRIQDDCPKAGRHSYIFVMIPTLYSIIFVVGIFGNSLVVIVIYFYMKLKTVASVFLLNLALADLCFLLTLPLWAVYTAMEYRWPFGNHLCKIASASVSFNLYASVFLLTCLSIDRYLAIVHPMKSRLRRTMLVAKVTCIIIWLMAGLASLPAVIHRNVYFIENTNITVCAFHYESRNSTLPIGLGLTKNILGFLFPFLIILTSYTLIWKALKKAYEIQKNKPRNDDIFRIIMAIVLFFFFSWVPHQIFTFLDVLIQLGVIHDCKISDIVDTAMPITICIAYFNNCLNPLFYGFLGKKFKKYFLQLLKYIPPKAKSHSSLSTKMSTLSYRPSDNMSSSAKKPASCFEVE
Description: Test on the AT1 receptor of angiotensin II (displacement of 125I angiotensin II, rat liver membranes). In kind it is binding. As for the experimental part:
1 - Test on the AT1 -receptor of angiotensin II
A fresh membrane preparation obtained from rat's liver is used. The tissue is ground up in a polytron in a 50 mM Tris buffer pH 7.4, the grinding is followed by 3 centrifugations at 30,000 g for 15 minutes with intermediate take up of the pellets in the Tris buffer pH 7.4.
(The product is first tested with 3×10^-5 M three times). When the tested product displaces more than 50% of the radioactivity specifically bound to the receptor, it is tested again according to a range of 7 concentrations in order to determine the concentration which inhibits by 50% the radioactivity specifically bound to the receptor. In this way the 50% inhibitory concentration is determined).
as §1

Test [4] deals with angiotensin II (pressure effects). Kind of test: Test for antagonistic activity of angiotensin II in the demedullated rat. In kind it is in vivo, Male Sprague-Dawley rats. Particulars: PO, inhibition of pressure effects of angiotensin II (0.75 micrograms/kg), read-out: ID50 PO.
[5] abbreviates: rabbit uterus membrane (estradiol pre-treated), 125I angiotensin II, 25° C., 150 minutes, read-out: AT2 Receptor IC50.
[6] abbreviates: rat liver membrane, 125I angiotensin II, 25° C., 150 minutes, read-out: AT1 Receptor IC50.
Setting [7] is: products P1 to P13, expressed in nM, read-out: On AT2 receptor IC50.
Setting [8] is: products P1 to P13, expressed in nM, read-out: On AT1 receptor IC50.

A word on the IC50: it is the concentration needed to halve the response being measured. For `CCCCc1nc(SC)c(C(C)(O)C(=O)O)n1Cc1ccc(-c2ccccc2S(=O)(=O)NC(=O)OCc2ccccc2)cc1` (stereo not drawn) [Example 7, 2-butyl alpha-hydroxy alpha-methyl 4-(methylthio) 1-[(2'-((((phenylmethoxy)carbonyl)amino)sulphonyl) (1,1'-biphenyl) 4-yl)methyl] 1H-imidazole 5-acetic acid], the ED50 in test [1] was found to be 0.6 mg/kg. Besides, the IC50 came to 5.2 nM in test [2] (setting [5]) and 0.7 nM in test [3] (setting [6]).

For the compound `CCCc1nc(SC)c(C(=O)O)n1Cc1ccc(-c2ccccc2S(=O)(=O)NC(=O)NCC2CCCCC2)cc1` [Example 23, sodium 1-((2'-(((((cyclohexylmethyl)amino)carbonyl)amino)sulphonyl) (1,1'-biphenyl) 4-yl)methyl] 4-(methylthio) 2-propyl 1H-imidazole 5-carboxylate], the figures for the ED50 in test [1] and in test [4] were 0.3 mg/kg and 1.54 mg/kg, respectively. Besides, the IC50 in test [2] (setting [5]) came to 2 nM; in test [3] (setting [6]), 0.2 nM.

As to `CCCc1nc(SC)c(C(=O)O)n1Cc1ccc(-c2ccccc2S(=O)(=O)NC(=O)NCc2ccccc2)cc1` [Example 25, 4-(methylthio) 1-[(2'-(((((phenylmethyl)amino)carbonyl)amino)sulphonyl) (1,1'-biphenyl) 4-yl)methyl] 2-propyl 1H-imidazole 5-carboxylic acid], the figures for the ED50 in test [1] and in test [4] were 0.22 mg/kg and 1.45 mg/kg, respectively. Besides, the IC50 in test [2] (setting [5]) is 5.9 nM; in test [3] (setting [6]), 0.2 nM.

On to `CCCCc1nc(SC)c(C(=O)O)n1Cc1ccc(-c2ccccc2S(=O)(=O)NC(=O)C(c2ccccc2)c2ccccc2)cc1` [Example 30, 2-butyl 1-[(2'-(((diphenylacetyl)amino)sulphonyl) (1,1'-biphenyl) 4-yl)methyl] 4-(methylthio) 1H-imidazole 5-carboxylic acid], for which, in test [1], the ED50 was 0.93 mg/kg.

On to `CCCCC(O)(C(=O)O)c1c(SC)nc(CCC)n1Cc1ccc(-c2ccccc2S(=O)(=O)NC(=O)NCc2ccccc2)cc1` (stereo not drawn) [Example 32, sodium alpha-butyl alpha-hydroxy 4-(methylthio) 1-[(2'-(((((phenylmethyl)amino)carbonyl)amino)sulphonyl) (1,1'-biphenyl) 4-yl)methyl] 2-propyl 1H-imidazole 5-acetate], for which, in test [1], the ED50 stood at 0.46 mg/kg. In addition, the half-maximal inhibitory concentration (IC50) amounted to 0.8 nM in test [2] (setting [5]) and 0.5 nM in test [3] (setting [6]).

As to `CCCCc1nc(SC)c(C(N)=O)n1Cc1ccc(-c2ccccc2S(=O)(=O)NC(=O)NCCC)cc1` [Example 35, 2-butyl 4-(methylthio) 1-((2'-((((propylamino)carbonyl)amino)sulphonyl) (1,1'-biphenyl) 4-yl)methyl) 1H-imidazole 5-carboxamide], the ED50 in test [1] stood at 0.05 mg/kg.

In the case of `CCCc1nc(SC(F)F)c(C(=O)O)n1Cc1ccc(-c2ccccc2S(=O)(=O)NC(=O)NCCc2cccs2)cc1` [Example 47], the results for the ED50 in test [1] and in test [4] were 0.33 mg/kg and 3 mg/kg, respectively. The concentration for half-maximal inhibition (IC50) in test [3] (setting [6]) was 0.03 nM.

In the case of `CCCc1nc(SC(F)F)c(C(=O)O)n1Cc1ccc(-c2ccccc2S(=O)(=O)NC(=O)NCCc2ccccc2)cc1` [Example 48], the ED50 in test [1] is 0.64 mg/kg.

As to `CCCc1nc(SC(F)F)c(C(=O)O)n1Cc1ccc(-c2ccccc2S(=O)(=O)NC(=O)NCc2cccs2)cc1` [Example 50, 4-((difluoromethyl)thio) 2-propyl 1-((2'-(((((2-thienylmethyl)amino)carbonyl)amino)sulphonyl) (1,1'-biphenyl) 4-yl)methyl) 1H-imidazole 5-carboxylic acid], in test [1], the ED50 was 0.13 mg/kg. For the same compound, the IC50 in test [2] (setting [5]) worked out at 7.4 nM; in test [3] (setting [6]) it was 0.06 nM.

With `CCCc1nc(SC)c(C(=O)O)n1Cc1ccc(-c2ccccc2S(=O)(=O)NC(=O)Nc2ccccc2)cc1` [Example 62, 4-(methylthio) 1-((2'-((((phenylamino)carbonyl)amino)sulphonyl) (1,1'-biphenyl) 4-yl)methyl) 2-propyl 1H-imidazole 5-carboxylic acid], the ED50 in test [1] amounted to 0.52 mg/kg.

`CCCCc1nc(SC)c(C(O)CC(=O)O)n1Cc1ccc(-c2ccccc2S(=O)(=O)NC(=O)NCc2ccccc2)cc1` (stereo not drawn) [Example 65, 2-butyl beta-hydroxy 4-(methylthio) 1-((2'-(((((phenylmethyl)amino)carbonyl)amino)sulphonyl) (1,1'-biphenyl) 4-yl)methyl) 1H-imidazole 5-propionic acid]: the ED50 in test [1] was found to be 0.05 mg/kg.

Regarding `CCCCc1nc(SC)c(C(=O)O)n1Cc1ccc(-c2ccccc2S(=O)(=O)NC(=O)NCC2CCCCC2)cc1` [Example 75, 2-butyl 1-((2'-(((((cyclohexylmethyl)amino)carbonyl)amino)sulphonyl) (1,1'-biphenyl) 4-yl)methyl) 4-(methylthio) 1H-imidazole 5-carboxylic acid], in test [1], the ED50 stood at 0.35 mg/kg. Further, the 50% inhibitory concentration (IC50) is 17 nM in test [2] (setting [7]), 0.23 nM in test [3] (setting [8]) and 0.05 nM in test [3] (setting [6]).

As for `CCCCc1nc(SC)c(C(=O)O)n1Cc1ccc(-c2ccccc2S(=O)(=O)NC(=O)OCC2CCCCC2)cc1` [Example P11, 2-butyl 1-[(2'-((((cyclohexyl)methoxycarbonyl)amino)sulphonyl) (1,1'-biphenyl) 4-yl)methyl] 4-methylthio 1H-imidazole 5-carboxylic acid], the IC50 in test [2] (setting [7]) turned out to be 24 nM; in test [3] (setting [8]) it was 0.14 nM.

Consider `CCCCc1nc(SC)c(C(=O)O)n1Cc1ccc(-c2ccccc2S(=O)(=O)NC(=O)OCc2ccccc2)cc1` [Example P12, 2-butyl 4-(methylthio) 1-[(2'-(((phenylmethoxycarbonyl)amino)sulphonyl) (1,1'-biphenyl) 4-yl)methyl] 1H-imidazole 5-carboxylic acid], for which the IC50 in test [2] (setting [7]) came to 54 nM; in test [3] (setting [8]) it was 0.8 nM.

As to `CCCCc1nc(OC)c(C=O)n1Cc1ccc(-c2ccccc2S(=O)(=O)NC(=O)OCc2ccccc2)cc1` [Example P13, (phenylmethyl) ((4'-((2-butyl 5-formyl 4-methoxy 1H-imidazol 1-yl)methyl) (1,1'-biphenyl) 2-yl)sulphonyl) carbamate], the IC50 in test [2] (setting [7]) is 63 nM; in test [3] (setting [8]) it was 5.9 nM.
